Data published in paper PMC8622623, “Histamine H3 Receptor Ligands—KSK-59 and KSK-73—Reduce Body Weight Gain in a Rat Model of Excessive Eating” (Pharmaceuticals, 2021).
Entries after “also recorded” stand apart in the source; their conditions may differ. Like-named read-outs stand apart in the source and are kept apart here.

Assays:
H3 histamine receptor = target: T1, H3 histamine receptor (Homo sapiens, UniProt Q9Y5N1); experiment: Lance cAMP intrinsic activity assay (antagonist dose-response); type: cell-based
T1 construct: host or cells: recombinant frozen ready-to-use cells
Experimental: Intrinsic activity studies were performed by two methods, Aequoscreen and Lance cAMP assays according to the manufacturer of the ready to use cells with stable expression of the H3 histamine receptor (Perkin Elmer, Waltham, MA, USA).
The LANCE Ultra cAMP assay as a homogeneous time-resolved fluorescence resonance energy transfer (TR-FRET) immunoassay is designed to measure cAMP produced upon modulation of adenylyl cyclase activity by GPCRs. The assay is based on the competition between the europium (Eu) chelate-labeled cAMP tracer and sample cAMP for binding sites on cAMP-specific monoclonal antibodies labeled with the ULight dye.
For measurement cells (frozen, ready to use) were thawed and resuspended in 4 mL of HBSS 1X. Then cells suspension was placed in a 15 mL Falcon tube and centrifuged for 10 min at 275× g. Pellet was resuspended in 1.5 mL HBSS 1X to determine cells concentration, and after next centrifugation cells were resuspended in stimulation buffer at appropriate concentration. […] Cell stimulation was performed for 30 min at RT°, and the agonist and antagonists were added simultaneously.

in vitro = details: PAMPA, pH 7.4
Experimental: The reference compounds, well-permeable caffeine and low-permeable norfloxacin were obtained from Sigma-Aldrich (St. Louis, MO, USA). Used for this study, pre-coated PAMPA Plate System Gentest™ was provided by Corning (Tewksbury, MA, USA). The system consisted of 96-well receiver filter plate pre-coated with structured layers of phospholipids and a donor microplate. The assay was performed as described previously. […] After 5 h of incubation at RT° the UPLC-MS spectrometry (Waters ACQUITY™ TQD system with the TQ Detector, Waters, Milford, MA, USA) method was used to estimate the quantity of compounds that penetrated from donor to acceptor wells. The permeability coefficients (Pe, cm/s) were calculated using the formulas provided by Corning.

[1] = test system: non-obese rats fed palatable diet; experiment: Model of excessive eating: body weight, calorie intake, fat pads; type: in vivo, female Wistar rats; details: for body weight gain: i.p. daily 28 days, vs palatable diet + vehicle; for caloric intake over the 28 days: i.p., KSK compounds 10 mg/kg b.w. or bupropion/naltrexone
Experimental: Female Wistar rats were housed in pairs. […] The water was available ad libitum. Palatable control group (palatable diet + vehicle) received vehicle (1% Tween 80, i.p.), while palatable test groups (palatable diet + compound) were injected i.p. tested compounds at the dose of 10 or 1 mg/kg b.w./day suspended in 1% Tween 80 or the reference compound bupropion/naltrexon. The combination of bupropion at a dose of 20 mg/kg b.w./day and naltrexone at a dose of 1 mg/kg b.w./day was also suspended in 1% Tween 80 and administered i.p. Weight was evaluated daily. Calorie intake was evaluated ones per week. On the 31st day, 20 min after i.p. administration of heparin (5000 units/rat) and thiopental (70 mg/kg b.w.), animals were sacrificed and peritoneal fat pads were collected (Figure 11).
Palatable diet contained: 100 g peanuts—612 kcal; 100 mL condensed milk—131 kcal; 100 g milk chocolate—529 kcal; 100 g cheese—325 kcal. Standard diet contained 100 g feed—280 kcal.

female Wistar rats = experiment: Visceral illness via kaolin intake (pica behavior); type: in vivo; details: for kaolin clay intake: single i.p. 10 mg/kg b.w.; for kaolin clay intake / water intake (pica model): vs control group that received i.p. CuSO4; for kaolin intake: KSK compounds 10 mg/kg or bupropion/naltrexone, vs vehicle control and CuSO4 control
Experimental: The method was based on the works by Takeda et al. and Yamamoto et al. with minor modification. The experiment lasted for five days. In addition to free access to feed, animals had also free access to a white kaolin. For the first few days, the animals were accustomed to the presence of kaolin in their cages. […] Moreover, animals were weighed before the compounds administration and 24 h after.

[2] = design: method as in PMID 31362197; details: PAMPA, published previously ref 17; cited from earlier work
[3] = antagonist dose-response with reference agonist (R)-alpha-methylhistamine at EC80, read-out: Lance cAMP IC50
[4] = text summary over both methods (Lance cAMP and Aequoscreen), read-out: IC50 value
[5] = palatable feed, KSK compounds 10 mg/kg b.w. or bupropion/naltrexone combination
[6] = palatable feed, vs palatable feed + vehicle

T1 sequence (Q9Y5N1 whole entry): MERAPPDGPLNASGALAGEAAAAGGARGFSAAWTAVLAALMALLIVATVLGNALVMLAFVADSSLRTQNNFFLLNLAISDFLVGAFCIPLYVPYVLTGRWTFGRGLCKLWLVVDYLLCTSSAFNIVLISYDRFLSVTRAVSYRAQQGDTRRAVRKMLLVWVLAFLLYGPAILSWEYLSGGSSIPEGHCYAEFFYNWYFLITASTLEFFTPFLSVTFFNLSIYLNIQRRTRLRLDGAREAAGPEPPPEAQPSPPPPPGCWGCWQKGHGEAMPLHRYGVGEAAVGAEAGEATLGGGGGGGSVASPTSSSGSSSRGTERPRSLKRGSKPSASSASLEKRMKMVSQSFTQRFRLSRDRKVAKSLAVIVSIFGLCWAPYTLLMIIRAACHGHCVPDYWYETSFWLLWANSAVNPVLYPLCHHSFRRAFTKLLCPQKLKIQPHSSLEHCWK

SMILES: CC(=O)c1ccc(OCCCCCCN2CCN(c3ccncc3)CC2)cc1.O=C(O)C(=O)O [KSK-59, 1-(4-((6-(4-(pyridin-4-yl)piperazin-1-yl)hexyl)oxy)phenyl)ethan-1-one oxalate]
- IC50 (H3 histamine receptor; [3]): 3.79 ± 0.4 nM
- IC50 (H3 histamine receptor; [4]): ~3 nM
- Papp at 5 h, 200 µM (in vitro): 4.35 ± 0.93 ×10⁻⁶ cm/s
- body weight gain ([1]; palatable feed, 1 mg/kg b.w.): did not significantly affect weight gain
- body weight gain [1, 5]: gained less weight than the control group fed palatable diet
- caloric intake over the 28 days [1, 6]: comparable to the amount consumed by the control rats
- kaolin clay intake (female Wistar rats): consumed significantly less kaolin clay
- water intake (pica model) (female Wistar rats; single i.p., 24 h): lower water intake
- kaolin intake (female Wistar rats; single i.p., 24 h): did not consume more kaolin

SMILES: CC(=O)c1ccc(OCCCCCCCCN2CCN(c3ccncc3)CC2)cc1.O=C(O)C(=O)O [KSK-73, 1-(4-((8-(4-(pyridin-4-yl)piperazin-1-yl)octyl)oxy)phenyl)ethan-1-one oxalate]
- IC50 (H3 histamine receptor; [3]): 10.5 ± 1.5 nM
- IC50 (H3 histamine receptor; [4]): 10 to 20 nM
- fat pads in the peritoneal cavity ([1]; end of experiment, vs palatable feed + vehicle): Significantly fewer fat pads
- body weight after the first administration ([1]; palatable feed, i.p. 10 mg/kg b.w., 10 mg/kg): slowed down the rats’ body weight gain already after the first administration; also recorded: weight loss after the first administration
- body weight gain ([1]; palatable feed, 1 mg/kg b.w.): caused significantly greater weight gain
- body weight gain [1, 5]: gained less weight than the control group fed palatable diet
- caloric intake over the 28 days [1, 6]: significantly reduced animals caloric intake
- kaolin clay intake (female Wistar rats): consumed significantly less kaolin clay
- water intake (pica model) (female Wistar rats; single i.p., 24 h): lower water intake
- calorie intake (pica model) (female Wistar rats; single i.p., 24 h, vs vehicle control): consumed fewer calories
- kaolin intake (female Wistar rats; single i.p., 24 h): did not consume more kaolin
- Pe (permeability coefficient) ± SD [2]: 6.22 ± 2.3 10^−6 cm/s
